Like-named read-outs stand apart in the source and are kept apart here.

We go through twelve compounds from patent US11339130B1 (Blade Therapeutics, Inc., priority 2016, dated 2022).

One assay addresses T1, Human Calpain 9/NS1 (Homo sapiens, UniProt O14815).
T1 sequence (O14815 1-690): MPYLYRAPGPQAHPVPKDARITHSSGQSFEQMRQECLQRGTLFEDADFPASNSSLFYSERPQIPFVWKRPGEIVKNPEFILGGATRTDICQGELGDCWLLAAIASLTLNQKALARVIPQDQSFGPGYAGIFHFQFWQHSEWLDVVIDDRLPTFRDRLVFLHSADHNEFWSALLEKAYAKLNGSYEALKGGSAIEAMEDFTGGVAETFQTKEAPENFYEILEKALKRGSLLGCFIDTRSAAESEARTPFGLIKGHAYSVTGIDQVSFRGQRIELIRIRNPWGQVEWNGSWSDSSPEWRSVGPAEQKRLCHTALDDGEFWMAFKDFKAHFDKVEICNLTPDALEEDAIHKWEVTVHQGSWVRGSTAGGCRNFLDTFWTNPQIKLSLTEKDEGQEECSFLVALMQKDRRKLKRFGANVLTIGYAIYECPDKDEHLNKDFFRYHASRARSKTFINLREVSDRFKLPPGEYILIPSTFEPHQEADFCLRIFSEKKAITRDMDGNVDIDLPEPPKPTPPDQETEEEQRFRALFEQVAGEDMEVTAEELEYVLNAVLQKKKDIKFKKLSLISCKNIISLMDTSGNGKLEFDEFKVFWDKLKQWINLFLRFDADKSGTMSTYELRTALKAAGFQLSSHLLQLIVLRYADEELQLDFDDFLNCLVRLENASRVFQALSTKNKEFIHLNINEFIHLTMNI
T1 sequence (P04632 1-268 partner): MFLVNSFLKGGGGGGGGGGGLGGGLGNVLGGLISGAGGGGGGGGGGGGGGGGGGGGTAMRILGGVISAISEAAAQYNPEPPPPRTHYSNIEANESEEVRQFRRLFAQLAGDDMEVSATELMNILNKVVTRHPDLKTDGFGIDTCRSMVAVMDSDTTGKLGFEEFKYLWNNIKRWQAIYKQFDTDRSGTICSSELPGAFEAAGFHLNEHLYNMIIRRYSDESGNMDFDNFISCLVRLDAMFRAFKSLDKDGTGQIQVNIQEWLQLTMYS
Kind of assay: Calpain inhibition continuous fluorescence (FRET) assay, Human Calpain 9/NS1. Type of assay: biochemical. Particulars: read-out: Human Calpain 9/NS1 IC50. In short, it runs like this: (§1)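 Continuous FRET read (ex 490/em 520 nm, 10 min) of calpain 1, 2 or 9 cleaving an internally quenched 5-FAM peptide, triggered by substrate with CaCl2 after enzyme–inhibitor incubation at ambient 25 °C, pH 7.5 Tris/NaCl/DTT buffer. IC50 from initial rates (1-5 min) via 4-parameter fit.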

For assay [1], the system named is Calpain activity in SH-SY5Y cells. Kind of assay: SH-SY5Y + AMC fluorescence assay (Suc-LLVY-AMC substrate). Particulars: read-out: SH-SY5Y + AMC IC50. Type of assay: cell-based.
Another assay deals with T2, Human Calpain 1/NS1 (Homo sapiens, UniProt P07384).
T2 sequence (P07384 1-714): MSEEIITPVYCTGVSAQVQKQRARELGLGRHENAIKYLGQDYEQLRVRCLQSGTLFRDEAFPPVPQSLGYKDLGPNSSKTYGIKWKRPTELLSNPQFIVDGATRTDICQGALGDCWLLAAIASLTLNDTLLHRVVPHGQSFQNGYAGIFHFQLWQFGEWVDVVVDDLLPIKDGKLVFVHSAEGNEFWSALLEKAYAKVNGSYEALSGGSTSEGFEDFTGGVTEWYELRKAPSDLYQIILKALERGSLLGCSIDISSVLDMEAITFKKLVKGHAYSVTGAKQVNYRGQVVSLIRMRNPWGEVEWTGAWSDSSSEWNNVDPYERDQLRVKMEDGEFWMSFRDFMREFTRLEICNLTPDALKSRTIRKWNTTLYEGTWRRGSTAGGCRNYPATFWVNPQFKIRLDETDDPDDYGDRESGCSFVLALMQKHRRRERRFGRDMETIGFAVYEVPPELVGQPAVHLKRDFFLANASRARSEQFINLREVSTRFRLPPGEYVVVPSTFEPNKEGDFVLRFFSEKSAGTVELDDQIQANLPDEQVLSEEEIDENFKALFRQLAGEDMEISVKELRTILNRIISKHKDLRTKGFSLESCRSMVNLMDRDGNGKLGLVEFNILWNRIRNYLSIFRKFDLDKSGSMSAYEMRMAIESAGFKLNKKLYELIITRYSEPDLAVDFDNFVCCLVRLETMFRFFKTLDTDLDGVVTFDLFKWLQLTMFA
T2 sequence (P04632 1-268 partner): T1 sequence (P04632 1-268 partner)
Kind of assay: Calpain inhibition continuous fluorescence (FRET) assay, Human Calpain 1/NS1. Particulars: read-out: Human Calpain 1/NS1 IC50. Type of assay: biochemical. In short, it runs like this:
as §1

The target in another assay is T3, Human Calpain 2/NS1 (Homo sapiens, UniProt P17655).
T3 sequence (P17655 1-700): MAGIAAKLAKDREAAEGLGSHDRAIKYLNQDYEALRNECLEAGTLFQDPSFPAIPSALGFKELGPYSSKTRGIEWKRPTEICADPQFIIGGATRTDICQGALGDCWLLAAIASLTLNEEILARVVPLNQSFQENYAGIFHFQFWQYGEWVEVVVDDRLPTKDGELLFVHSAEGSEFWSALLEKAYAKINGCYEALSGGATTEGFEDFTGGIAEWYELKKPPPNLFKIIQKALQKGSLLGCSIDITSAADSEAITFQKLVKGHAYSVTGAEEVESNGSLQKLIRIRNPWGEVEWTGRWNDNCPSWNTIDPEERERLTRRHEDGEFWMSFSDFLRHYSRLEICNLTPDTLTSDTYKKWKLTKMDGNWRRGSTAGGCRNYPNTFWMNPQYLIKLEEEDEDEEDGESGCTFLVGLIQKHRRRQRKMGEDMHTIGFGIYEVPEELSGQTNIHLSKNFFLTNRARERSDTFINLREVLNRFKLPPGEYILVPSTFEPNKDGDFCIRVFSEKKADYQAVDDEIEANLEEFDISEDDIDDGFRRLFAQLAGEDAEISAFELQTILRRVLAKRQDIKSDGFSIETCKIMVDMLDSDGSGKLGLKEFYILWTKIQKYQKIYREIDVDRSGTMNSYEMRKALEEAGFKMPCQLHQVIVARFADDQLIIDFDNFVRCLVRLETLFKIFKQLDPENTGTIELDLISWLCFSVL
T3 sequence (P04632 1-268 partner): T1 sequence (P04632 1-268 partner)
In words: Calpain inhibition continuous fluorescence (FRET) assay, Human Calpain 2/NS1. The class given is biochemical. Particulars: read-out: Human Calpain 2/NS1 IC50. In short, it runs like this: as §1

Assay [2] concerns Calpain activity in SH-SY5Y cells (SBDP-150). Kind of assay: SH-SY5Y Spectrin western blot assay (SBDP-150 breakdown product, A23187-induced). The class given is cell-based. Particulars: SH-SY5Y cells, read-out: SH-SY5Y Spectrin IC50. For orientation: In western blotting, separated proteins are transferred to a membrane and probed.
Setting [3] is: Homo sapiens, A23187-induced SBDP-150, western blot.
[4] abbreviates: Homo sapiens, Column D, A23187-induced SBDP-150.

For the compound `Cc1cccc(-c2nsnc2C(=O)NC(Cc2ccccc2)C(=O)C(N)=O)c1` (stereo not drawn) [Compound 325, N-(4-amino-3,4-dioxo-1-phenylbutan-2-yl)-4-(M-tolyl)-1,2,5-thiadiazole-3-carboxamide], the IC50 was under 3 µM on Human Calpain 9/NS1; over 25 µM in assay [1]; under 3 µM at Human Calpain 1/NS1; under 3 µM at Human Calpain 2/NS1; over 25 µM in assay [2] (setting [3]).
In the case of `Cc1cc(C(=O)N[C@@H](Cc2ccccc2)C(=O)C(N)=O)n(-c2cccc(COc3ccccc3)c2)n1` [Compound 231, (S)—N-(4-amino-3,4-dioxo-1-phenylbutan-2-yl)-3-methyl-1-(3-(phenoxymethyl)phenyl)-1H-pyrazole-5-carboxamide], the IC50 on Human Calpain 9/NS1 (Column C) is under 3 µM; in assay [1] (Column E), over 25 µM; on Human Calpain 1/NS1 (Column A), under 3 µM; at Human Calpain 2/NS1 (Column B), under 3 µM; in assay [2] (setting [4]) it was over 25 µM.
In the case of `Cc1cc(C(=O)N[C@@H](Cc2ccccc2)C(=O)C(N)=O)n(-c2nc(-c3ccccc3)cs2)n1` [Compound 82, (S)—N-(4-amino-3,4-dioxo-1-phenylbutan-2-yl)-3-methyl-1-(4-phenylthiazol-2-yl)-1H-pyrazole-5-carboxamide], the IC50 at Human Calpain 9/NS1 (Column C) is under 3 µM; in assay [1] (Column E), over 25 µM; at Human Calpain 1/NS1 (Column A) it was under 3 µM; on Human Calpain 2/NS1 (Column B), under 3 µM; in assay [2] (setting [4]), under 10 µM.
`Cc1cc(C(=O)NC(Cc2ccccc2)C(=O)C(N)=O)n(-c2ncccc2F)n1` (stereo not drawn) [Compound 348, N-(4-amino-3,4-dioxo-1-phenylbutan-2-yl)-1-(3-fluoropyridin-2-yl)-3-methyl-1H-pyrazole-5-carboxamide]: the IC50 on Human Calpain 9/NS1 was under 3 µM; in assay [1], under 10 µM; at Human Calpain 1/NS1, under 3 µM; on Human Calpain 2/NS1, under 3 µM; in assay [2] (setting [3]), over 25 µM.
For `Cc1noc(-c2ccccc2)c1C(=O)N[C@@H](Cc1ccc(F)cc1)C(=O)C(N)=O` [Compound 58], the IC50 at Human Calpain 9/NS1 (Column C) was under 3 µM; in assay [1] (Column E) it was over 25 µM; on Human Calpain 1/NS1 (Column A), under 3 µM; at Human Calpain 2/NS1 (Column B) it was under 3 µM; in assay [2] (setting [4]), 10 to 25 µM.
For `NC(=O)C(=O)[C@H](Cc1ccccc1)NC(=O)c1cncn1-c1ccc(-c2ncco2)cn1` [Compound 112, (S)—N-(4-amino-3,4-dioxo-1-phenylbutan-2-yl)-1-(5-(oxazol-2-yl)pyridin-2-yl)-1H-imidazole-5-carboxamide], the IC50 on Human Calpain 9/NS1 (Column C) was under 3 µM; in assay [1] (Column E), over 25 µM; at Human Calpain 1/NS1 (Column A), under 3 µM; on Human Calpain 2/NS1 (Column B) it was under 3 µM; in assay [2] (setting [4]), under 10 µM.
`NC(=O)C(=O)C(Cc1ccccc1)NC(=O)c1nsnc1-c1ccc(CNC(=O)c2ccc(F)cc2)cc1` (stereo not drawn) [Compound 363, N-(4-amino-3,4-dioxo-1-phenylbutan-2-yl)-4-(4-((4-fluorobenzamido)methyl)phenyl)-1,2,5-thiadiazole-3-carboxamide]: the IC50 at Human Calpain 9/NS1 is under 3 µM; in assay [1], over 25 µM; on Human Calpain 1/NS1 it was under 3 µM; at Human Calpain 2/NS1, under 3 µM; in assay [2] (setting [3]), under 10 µM.
Turning to `Cc1ccc(-c2nn(C)cc2C(=O)NC(Cc2ccccc2)C(=O)C(N)=O)o1` (stereo not drawn) [Compound 498, N-(4-amino-3,4-dioxo-1-phenylbutan-2-yl)-1-methyl-3-(5-methylfuran-2-yl)-1H-pyrazole-4-carboxamide], the IC50 was under 3 µM on Human Calpain 9/NS1; 10 to 25 µM in assay [1]; under 3 µM at Human Calpain 1/NS1; under 3 µM on Human Calpain 2/NS1; over 25 µM in assay [2] (setting [3]).
In the case of “(S)—N-(4-amino-3,4-dioxo-1-phenylbutan-2-yl)-3-methyl-1-(5-methylpyridin-2-yl)-1H-pyrazole-5-carboxamide [Compound 121]”, the IC50 on Human Calpain 9/NS1 (Column C) was under 3 µM; in assay [1] (Column E) it was 10 to 25 µM; at Human Calpain 1/NS1 (Column A), under 3 µM; on Human Calpain 2/NS1 (Column B), under 3 µM; in assay [2] (Column D, A23187-induced SBDP-150), under 10 µM.
As for `Cc1cc(C(=O)N[C@@H](Cc2ccccc2)C(=O)C(N)=O)n(-c2ccnc(Cl)n2)n1` [Compound 246, (S)—N-(4-amino-3,4-dioxo-1-phenylbutan-2-yl)-1-(2-chloropyrimidin-4-yl)-3-methyl-1H-pyrazole-5-carboxamide], the IC50 at Human Calpain 9/NS1 (Column C) was under 3 µM; in assay [1] (Column E), under 10 µM; on Human Calpain 1/NS1 (Column A), under 3 µM; at Human Calpain 2/NS1 (Column B), under 3 µM; in assay [2] (setting [4]), 10 to 25 µM.
Consider `Cc1n[nH]c(-c2ccccc2)c1C(=O)N[C@@H](Cc1ccccc1)C(=O)C(N)=O` [Compound 257, (S)—N-(4-amino-3,4-dioxo-1-phenylbutan-2-yl)-3-methyl-5-phenyl-1H-pyrazole-4-carboxamide], for which the IC50 at Human Calpain 9/NS1 (Column C) is under 3 µM; in assay [1] (Column E) it was under 10 µM; at Human Calpain 1/NS1 (Column A), under 3 µM; at Human Calpain 2/NS1 (Column B), under 3 µM; in assay [2] (setting [4]) it was 10 to 25 µM.
As to `Cn1cc(C(=O)NC(Cc2ccccc2)C(=O)C(N)=O)c(-c2ccsc2Cl)n1` (stereo not drawn) [Compound 501, N-(4-amino-3,4-dioxo-1-phenylbutan-2-yl)-3-(2-chlorothiophen-3-yl)-1-methyl-1H-pyrazole-4-carboxamide], the IC50 at Human Calpain 9/NS1 is under 3 µM; in assay [1], under 10 µM; on Human Calpain 1/NS1 it was under 3 µM; at Human Calpain 2/NS1, under 3 µM; in assay [2] (setting [3]), 10 to 25 µM.
